Tested on: CYP3A
Test: Determination of CYP3A activity by erythromycin demethylation method (rat liver homogenate/microsomes)
Design: CYP3A Activity (percentage of control): dose or concentration left out as unconfirmed
Settings: for enhancing effects on rat hepatic CYP3A (in words): summary of Table 2; for inhibitory effects on rat liver CYP3A (in words): summary of Table 1
[1] = inhibitor concentration 0.04, Table 1 Inhibition
[2] = inhibitor concentration 0.004, Table 1 Inhibition
[3] = inhibitor concentration 0.4, Table 1 Inhibition
[4] = inhibitor concentration 1.55, Table 1 Inhibition
[5] = inhibitor concentration 0.1, Table 1 Inhibition

CYP3A Activity (percentage of control) [1]	CYP3A Activity (percentage of control) [2]	CYP3A Activity (percentage of control) [3]	Compound	also measured
62.37 ± 12.33 percentage of control	81.63 ± 5.21 percentage of control	60.54 ± 15.51 percentage of control	O=C1C[C@@H](c2ccc(O)cc2)Oc2cc(O)cc(O)c21 [Nariagenin]	CYP3A Activity (percentage of control) [4]: 47.07 ± 9.87 percentage of control
–	–	–	O=c1cc(-c2ccccc2)oc2c1ccc1ccccc12 [α-Naphthoflavone]	CYP3A Activity (percentage of control) (inhibitor concentration 1.24, Table 1 Inhibition): 43.52 ± 2.93 percentage of control
–	–	–	CCCCCCCCCCCCO [Lauryl alcohol]	CYP3A Activity (percentage of control) (inhibitor concentration 739.88, Table 1 Inhibition): 18.58 ± 1.46 percentage of control; inhibitory effects on rat liver CYP3A (in words): particularly effective
–	–	–	C=CC(=C)CCC=C(C)C [β-myrcene]	CYP3A Activity (percentage of control) (inhibitor concentration 4.3, Table 1 Inhibition): 55.95 ± 4.45 percentage of control; inhibitory effects on rat liver CYP3A (in words): particularly effective
–	–	–	C[C@@H]1O[C@@H](O[C@H]2[C@H](Oc3cc(O)c4c(c3)O[C@H](c3ccc(O)cc3)CC4=O)O[C@H](CO)[C@@H](O)[C@@H]2O)[C@H](O)[C@H](O)[C@H]1O [Narigin]	CYP3A Activity (percentage of control) (inhibitor concentration 21.67, Table 1 Inhibition): 56.22 ± 22.87 percentage of control; inhibitory effects on rat liver CYP3A (in words): particularly effective
70.50 ± 0.59 percentage of control	60.33 ± 2.18 percentage of control	53.89 ± 4.43 percentage of control	CC(=O)OCCCc1ccccc1 [3-phenylpropyl acetate]	–
77.52 ± 15.98 percentage of control	75.76 ± 7.97 percentage of control	91.62 ± 0.76 percentage of control	O=c1c(O)c(-c2ccc(O)c(O)c2)oc2cc(O)cc(O)c12 [quercetin]	–
92.06 ± 0.77 percentage of control	78.78 ± 2.76 percentage of control	–	COc1ccc(-c2coc3cc(O)ccc3c2=O)cc1 [formononetin]	CYP3A Activity (percentage of control) (enhancer concentration 0.123, Table 2 Enhancement): 113.74 ± 8.87 percentage of control; CYP3A Activity (percentage of control) [5]: 70.37 ± 5.79 percentage of control; enhancing effects on rat hepatic CYP3A (in words): particularly effective
–	–	–	CC1=CCC(C(C)(C)O)CC1 (stereo not drawn) [α-terpineol]	CYP3A Activity (percentage of control) (inhibitor concentration 501.93, Table 1 Inhibition): 9.29 ± 1.07 percentage of control
–	–	–	Oc1cc(O)c2c(c1)O[C@@H](c1ccc(O)c(O)c1)[C@@H](O)C2 [(+)-epicatechin]	CYP3A Activity (percentage of control) (inhibitor concentration 0.45, Table 1 Inhibition): 14.66 ± 7.66 percentage of control; CYP3A Activity (percentage of control) (inhibitor concentration 1.41, Table 1 Inhibition): 23.29 ± 5.28 percentage of control; CYP3A Activity (percentage of control) [4]: 27.96 ± 5.07 percentage of control
94.10 ± 10.37 percentage of control	88.22 ± 0.00 percentage of control	106.51 ± 8.16 percentage of control	O=c1cc(-c2ccc(O)c(O)c2)oc2cc(O)cc(O)c12 [Luteolin]	CYP3A Activity (percentage of control) (inhibitor concentration 1.56, Table 1 Inhibition): 36.32 ± 1.26 percentage of control
54.64 ± 5.16 percentage of control	52.96 ± 1.15 percentage of control	–	O=c1cc(-c2ccc(O)cc2)oc2cc(O)cc(O)c12 [apigenin]	CYP3A Activity (percentage of control) (enhancer concentration 0.22, Table 2 Enhancement): 108.62 ± 1.28 percentage of control; CYP3A Activity (percentage of control) [5]: 59.94 ± 2.50 percentage of control; enhancing effects on rat hepatic CYP3A (in words): particularly effective
66.83 ± 5.03 percentage of control	64.62 ± 1.53 percentage of control	–	O=c1c(O[C@@H]2O[C@H](CO)[C@@H](O)[C@H](O)[C@H]2O)c(-c2ccc(O)c(O)c2)oc2cc(O)cc(O)c12 [isoquercitrin]	CYP3A Activity (percentage of control) (inhibitor concentration 0.2, Table 1 Inhibition): 51.46 ± 6.68 percentage of control
–	–	–	O=c1cc(-c2ccccc2)oc2ccc3ccccc3c12 [β-Naphthoflavone]	CYP3A Activity (percentage of control) (inhibitor concentration 0.87, Table 1 Inhibition): 42.41 ± 4.08 percentage of control
–	–	–	CC1(C)[C@@H](O[C@H]2O[C@H](C(=O)O)[C@@H](O)[C@H](O)[C@H]2O[C@@H]2O[C@H](C(=O)O)[C@@H](O)[C@H](O)[C@H]2O)CC[C@]2(C)[C@H]3C(=O)C=C4[C@@H]5C[C@@](C)(C(=O)O)CC[C@]5(C)CC[C@@]4(C)[C@]3(C)CC[C@@H]12 [Glycyrrhizin]	CYP3A Activity (percentage of control) (inhibitor concentration 0.269, Table 1 Inhibition): 42.96 ± 3.75 percentage of control
84.87 ± 6.93 percentage of control	89.00 ± 12.02 percentage of control	90.00 ± 4.20 percentage of control	O=c1ccc2ccc(O)cc2o1 [umbelliferone]	CYP3A Activity (percentage of control) (inhibitor concentration 1.84, Table 1 Inhibition): 76.22 ± 2.73 percentage of control; CYP3A Activity (percentage of control) (inhibitor concentration 5.43, Table 1 Inhibition): 98.85 ± 14.19 percentage of control; CYP3A Activity (percentage of control) (inhibitor concentration 16.96, Table 1 Inhibition): 90.33 ± 1.63 percentage of control
76.57 ± 3.83 percentage of control	73.03 ± 2.30 percentage of control	80.11 ± 8.11 percentage of control	O=c1c(O)c(-c2ccc(O)cc2)oc2cc(O)cc(O)c12 [kaempferol]	CYP3A Activity (percentage of control) (enhancer concentration 1.46, Table 2 Enhancement): 111.35 ± 27.88 percentage of control
67.88 ± 0.49 percentage of control	79.71 ± 1.76 percentage of control	65.63 ± 1.29 percentage of control	C=C[C@H]1[C@H](O[C@@H]2O[C@H](CO)[C@@H](O)[C@H](O)[C@H]2O)OC=C2C(=O)OCC[C@]21O [swertiamarin]	–
60.28 ± 1.95 percentage of control	71.26 ± 1.95 percentage of control	42.53 ± 0.49 percentage of control	CC(Cc1ccc(O)c(O)c1)C(C)Cc1ccc(O)c(O)c1 (centres unmarked) [Nordihydroguaiaretic Acid]	CYP3A Activity (percentage of control) (inhibitor concentration 3.09, Table 1 Inhibition): 8.96 ± 1.79 percentage of control; inhibitory effects on rat liver CYP3A (in words): particularly effective

Compound	CYP3A Activity (percentage of control) [1]	CYP3A Activity (percentage of control) [2]	CYP3A Activity (percentage of control) [3]	also measured
Luteolin-7-glycoside	98.71 ± 19.74 percentage of control	–	–	CYP3A Activity (percentage of control) (enhancer concentration 0.004, Table 2 Enhancement): 122.89 ± 40.06 percentage of control; CYP3A Activity (percentage of control) (enhancer concentration 0.1, Table 2 Enhancement): 113.09 ± 5.99 percentage of control; CYP3A Activity (percentage of control) (inhibitor concentration 0.0078, Table 1 Inhibition): 46.68 ± 0.17 percentage of control; enhancing effects on rat hepatic CYP3A (in words): particularly effective
Oc1cc(O)c2c(c1)O[C@H](c1ccc(O)c(O)c1)[C@@H](O)C2 (relative stereo) [(+)-catechin, 2R-trans-2-(3,4-dihydroxyphenyl)-3,4-dihydro-2H-1-benopyran-3,5,7-triol]	62.70 ± 8.53 percentage of control	59.31 ± 2.94 percentage of control	45.42 ± 6.13 percentage of control	inhibitory effects on rat liver CYP3A (in words): particularly effective
COc1ccc([C@@H]2CC(=O)c3c(O)cc(O[C@@H]4O[C@H](CO[C@@H]5O[C@@H](C)[C@H](O)[C@@H](O)[C@H]5O)[C@@H](O)[C@H](O)[C@H]4O)cc3O2)cc1O [hesperidin]	103.79 ± 6.37 percentage of control	24.05 ± 5.06 percentage of control	80.75 ± 4.18 percentage of control	inhibitory effects on rat liver CYP3A (in words): particularly effective
C[C@@H]1O[C@@H](Oc2c(-c3ccc(O)c(O)c3)oc3cc(O)cc(O)c3c2=O)[C@H](O)[C@H](O)[C@H]1O [quercitrin]	73.56 ± 5.96 percentage of control	55.06 ± 5.34 percentage of control	98.67 ± 7.51 percentage of control	–

Reference: US7169763B2, “Cytochrome P450 3A inhibitors and enhancers” (priority 2002, dated 2007)
